From patent CN111686108A, “表小檗碱在制备抗幽门螺旋杆菌感染药物中的应用” (Southwest University, priority 2020, dated 2020)
In brackets after ≈: the same amount, converted by molar mass. Read-outs that look alike come from different tables or passages of the source.

Legend:
[1] = system: Helicobacter pylori 11637 [幽门螺旋杆菌(11637)]; test: MIC determination by two-fold (倍半) dilution on MH agar, single drugs and mixed drugs, H. pylori 11637; assay type: cell-based; settings: for MIC: Helicobacter pylori
[2] = target: cytochrome P450 isoform CYP2D6 [细胞色素P450亚型CYP2D6] (Homo sapiens, UniProt P10635); settings: in words; background; cited from earlier work
cytochrome P450 isoform CYP2D6 [细胞色素P450亚型CYP2D6], sequence (P10635 whole entry, canonical isoform): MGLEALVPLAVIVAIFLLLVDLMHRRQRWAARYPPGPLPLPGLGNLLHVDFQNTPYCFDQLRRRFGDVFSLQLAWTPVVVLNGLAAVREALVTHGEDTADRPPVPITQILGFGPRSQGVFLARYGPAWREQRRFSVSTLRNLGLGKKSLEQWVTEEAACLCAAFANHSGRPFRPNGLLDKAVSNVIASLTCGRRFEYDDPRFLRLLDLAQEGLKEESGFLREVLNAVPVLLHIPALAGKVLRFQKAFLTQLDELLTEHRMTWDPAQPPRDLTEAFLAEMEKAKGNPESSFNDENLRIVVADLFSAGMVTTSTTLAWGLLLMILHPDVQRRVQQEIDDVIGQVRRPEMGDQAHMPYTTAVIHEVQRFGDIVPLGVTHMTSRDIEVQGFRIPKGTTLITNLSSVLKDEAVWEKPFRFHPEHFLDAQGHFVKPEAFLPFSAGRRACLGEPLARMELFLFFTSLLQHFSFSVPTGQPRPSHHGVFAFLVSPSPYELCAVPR

[3] = target: BACE1 (Homo sapiens, UniProt P56817); settings: in words; background; cited from earlier work
BACE1, sequence (P56817 46-501, species assumed): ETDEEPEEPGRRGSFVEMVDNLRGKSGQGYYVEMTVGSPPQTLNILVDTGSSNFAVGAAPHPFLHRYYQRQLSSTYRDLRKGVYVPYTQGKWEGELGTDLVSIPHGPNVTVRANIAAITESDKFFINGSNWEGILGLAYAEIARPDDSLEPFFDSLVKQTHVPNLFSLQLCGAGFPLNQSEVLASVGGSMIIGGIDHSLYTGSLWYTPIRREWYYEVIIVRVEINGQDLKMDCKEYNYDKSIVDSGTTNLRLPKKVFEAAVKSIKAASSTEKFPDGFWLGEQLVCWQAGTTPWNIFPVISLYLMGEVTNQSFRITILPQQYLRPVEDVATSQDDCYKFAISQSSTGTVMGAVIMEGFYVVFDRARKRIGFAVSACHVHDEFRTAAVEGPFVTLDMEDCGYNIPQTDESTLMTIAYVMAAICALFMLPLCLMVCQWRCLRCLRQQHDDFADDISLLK

[4] = target: aldose reductase [醛糖还原酶] (Homo sapiens, UniProt P15121); settings: in words; background; cited from earlier work
[5] = system: α receptor [α受体]; settings: in words; background; cited from earlier work
[6] = in words, background; cited from earlier work
[7] = drug alone, H. pylori 11637, MH agar, 85%N2, 10%CO2, 5%O2, 48~72h, read-out: MIC

For COc1cc2c(cc1OC)-c1cc3ccc4c(c3c[n+]1CC2)OCO4 [e-BBR, 表小檗碱], the MIC [1, 7] is given as 100 mg/L, the anti-Hp activity ([1]; in words, compared with berberine (小檗碱), from table 1) is given as “低于小檗碱” and the “inhibitory activity on CYP2D6” value [2] is given as “较强的抑制活性”. The BACE1 inhibitory activity [3] was “非竞争性BACE1抑制活性”, the “inhibition of aldose reductase activity” value [4] was “抑制醛糖还原酶活性” and the “α receptor blocking effect” value [5] was “α受体阻断作用”. The “in vitro hypoglycaemic activity” value [6] was “体外降血糖活性”.

O=C1OCCN1/N=C/c1ccc([N+](=O)[O-])o1 [呋, 呋喃唑酮] gave an MIC [1, 7] of 1.56 mg/L (≈ 6.93 µM).

Compound C[C@H]1COc2c(N3CCN(C)CC3)c(F)cc3c(=O)c(C(=O)O)cn1c23 [左, 左氧氟沙星] has an MIC [1, 7] of 3.1 mg/L (≈ 8.58 µM).

For CC[C@H]1OC(=O)[C@H](C)[C@@H](O[C@H]2C[C@@](C)(OC)[C@@H](O)[C@H](C)O2)[C@H](C)[C@@H](O[C@@H]2O[C@H](C)C[C@H](N(C)C)[C@H]2O)[C@](C)(OC)C[C@@H](C)C(=O)[C@H](C)[C@@H](O)[C@]1(C)O [克, 克拉霉素], the MIC [1, 7] was 0.1 mg/L (≈ 0.134 µM).

COc1ccc2[nH]c([S+]([O-])Cc3ncc(C)c(OC)c3C)nc2c1 (stereo not drawn) [奥, 奥美拉唑] showed an MIC [1, 7] of 100 mg/L (≈ 289 µM).

For COc1ccc2cc3[n+](cc2c1OC)CCc1cc2c(cc1-3)OCO2.[Cl-] [BBR, 小檗碱盐酸盐], the MIC ([1]; 72 h) was 50 mg/L and the synergistic effect ([1]; in words, combined with omeprazole (奥美拉唑), from table 1) was “有一定的协同作用”.

Cc1ncc([N+](=O)[O-])n1CCO [甲, 甲硝唑] showed an MIC [1, 7] of 1.56 mg/L (≈ 9.11 µM).

For CC1(C)S[C@@H]2[C@H](NC(=O)[C@H](N)c3ccc(O)cc3)C(=O)N2[C@H]1C(=O)O [阿, 阿莫西林], the MIC [1, 7] was 0.05 mg/L (≈ 0.137 µM).
